# Several values for one entry are separate records, joined by “and”; a condition that tells them apart may be missing. Equal entries are not always repeated. Where two headings read alike, the source gives them in different places.
# Assays:
# [1] = system: HCT-116; assay: MTT cytotoxicity assay, HCT-116; format: cell-based; conditions: Homo sapiens, 24 h treatment, mean ± SD of triplicate
# Description: (§1) Subsequently, 100 µL of dimethyl sulfoxide was introduced to dissolve the insoluble formazan.
# [2] = system: MDA-MB-231; assay: MTT cytotoxicity assay, MDA-MB-231; format: cell-based; conditions: Homo sapiens, 24 h treatment, mean ± SD of triplicate
# Description: as §1
# [3] = system: HeLa; assay: MTT cytotoxicity assay, HeLa; format: cell-based; conditions: Homo sapiens, 24 h treatment, mean ± SD of triplicate
# Description: as §1
# [4] = system: MCF-7; assay: MTT cytotoxicity assay, MCF-7; format: cell-based, human; conditions: Homo sapiens, MCF7, 24 h, 24 h treatment, mean ± SD of triplicate
# Description: as §1
# [5] = MTT cytotoxicity assay, normal cell line WI-38; format: cell-based, human; conditions: human, WI-38 cells (normal human lung fibroblasts), normal (non-cancer) cell line, 24 h treatment
# Description: as §1
# [6] = system: WI-38; assay: MTT cytotoxicity assay, normal cell line WI-38; format: cell-based, human; conditions: normal (non-cancer) cell line, 24 h treatment
# Description: as §1
# [7] = system: HCT-116, MDA-MB-231, HeLa, and MCF-7; assay: MTT cytotoxicity assay, ranges stated over several cell lines; format: cell-based; conditions: Homo sapiens
# Method in brief: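 Viability signal: MTT-derived formazan, brought into solution with DMSO.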
# [8] = target: T1, aromatase (CYP19A, EC 1.14.14.14) (Homo sapiens, UniProt P11511); assay: biochemical
# T1 construct: Microsomal samples were isolated from tissue using the Microsome Isolation Kit; tissue BioVision K983-100; host or cells: microsomes from an unnamed tissue
# T1 sequence (P11511 1-503): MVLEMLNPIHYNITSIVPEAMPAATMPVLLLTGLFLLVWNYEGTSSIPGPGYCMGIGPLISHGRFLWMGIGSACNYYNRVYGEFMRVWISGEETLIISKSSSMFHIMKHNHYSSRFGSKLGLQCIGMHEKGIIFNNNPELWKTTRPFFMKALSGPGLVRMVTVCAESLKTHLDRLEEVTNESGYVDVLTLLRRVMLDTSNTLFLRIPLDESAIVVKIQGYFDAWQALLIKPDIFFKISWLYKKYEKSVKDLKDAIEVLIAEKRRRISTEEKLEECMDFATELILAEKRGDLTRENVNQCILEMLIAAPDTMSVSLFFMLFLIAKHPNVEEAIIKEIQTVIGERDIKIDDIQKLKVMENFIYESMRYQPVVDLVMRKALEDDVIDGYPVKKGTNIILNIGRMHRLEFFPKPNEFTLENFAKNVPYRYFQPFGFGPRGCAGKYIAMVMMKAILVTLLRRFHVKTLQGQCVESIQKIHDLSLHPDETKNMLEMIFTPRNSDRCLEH
# Description: In vitro aromatase assay was performed using the BioVision Aromatase Activity Assay Kit (Catalog # K983-100; BioVision, Milpitas, CA, USA). Microsomal samples were isolated from tissue using the Microsome Isolation Kit (Cat. #K249; BioVision, Milpitas, CA, USA). A standard curve was established by diluting the Fluorescence Standard provided in the kit to create a 0.5 pmole/µL solution, followed by setting up a series of standards in a white 96-well plate, adjusting the total volume to 100 µL with aromatase assay buffer. For each reaction well, a 2X concentrated mix was prepared by adding 2–48 µL of the microsomal sample and 2 µL of the NADPH generating system, bringing the final volume to 50 µL with aromatase assay buffer. Background controls (no enzyme) and positive controls (with recombinant aromatase) were included. […] After a 10 min incubation at 37 °C, 30 µL of the substrate/NADP+ mixture was added to each well, and fluorescence was measured immediately in kinetic mode for 60 min at 37 °C. Finally, the change in fluorescence was calculated to determine the specific activity of aromatase using the formula provided in the kit protocol.
# [9] = system: MCF-7; assay: In vitro anti-estrogenic activity assay, MCF-7
# [10] = system: MCF-7a; assay: In vitro anti-estrogenic activity assay, MCF-7a
# [11] = target: EGFR (Homo sapiens, UniProt P00533); assay: In vitro protein kinase inhibition assay (ELISA kit), EGFR
# Chain of EGFR (P00533 25-1210): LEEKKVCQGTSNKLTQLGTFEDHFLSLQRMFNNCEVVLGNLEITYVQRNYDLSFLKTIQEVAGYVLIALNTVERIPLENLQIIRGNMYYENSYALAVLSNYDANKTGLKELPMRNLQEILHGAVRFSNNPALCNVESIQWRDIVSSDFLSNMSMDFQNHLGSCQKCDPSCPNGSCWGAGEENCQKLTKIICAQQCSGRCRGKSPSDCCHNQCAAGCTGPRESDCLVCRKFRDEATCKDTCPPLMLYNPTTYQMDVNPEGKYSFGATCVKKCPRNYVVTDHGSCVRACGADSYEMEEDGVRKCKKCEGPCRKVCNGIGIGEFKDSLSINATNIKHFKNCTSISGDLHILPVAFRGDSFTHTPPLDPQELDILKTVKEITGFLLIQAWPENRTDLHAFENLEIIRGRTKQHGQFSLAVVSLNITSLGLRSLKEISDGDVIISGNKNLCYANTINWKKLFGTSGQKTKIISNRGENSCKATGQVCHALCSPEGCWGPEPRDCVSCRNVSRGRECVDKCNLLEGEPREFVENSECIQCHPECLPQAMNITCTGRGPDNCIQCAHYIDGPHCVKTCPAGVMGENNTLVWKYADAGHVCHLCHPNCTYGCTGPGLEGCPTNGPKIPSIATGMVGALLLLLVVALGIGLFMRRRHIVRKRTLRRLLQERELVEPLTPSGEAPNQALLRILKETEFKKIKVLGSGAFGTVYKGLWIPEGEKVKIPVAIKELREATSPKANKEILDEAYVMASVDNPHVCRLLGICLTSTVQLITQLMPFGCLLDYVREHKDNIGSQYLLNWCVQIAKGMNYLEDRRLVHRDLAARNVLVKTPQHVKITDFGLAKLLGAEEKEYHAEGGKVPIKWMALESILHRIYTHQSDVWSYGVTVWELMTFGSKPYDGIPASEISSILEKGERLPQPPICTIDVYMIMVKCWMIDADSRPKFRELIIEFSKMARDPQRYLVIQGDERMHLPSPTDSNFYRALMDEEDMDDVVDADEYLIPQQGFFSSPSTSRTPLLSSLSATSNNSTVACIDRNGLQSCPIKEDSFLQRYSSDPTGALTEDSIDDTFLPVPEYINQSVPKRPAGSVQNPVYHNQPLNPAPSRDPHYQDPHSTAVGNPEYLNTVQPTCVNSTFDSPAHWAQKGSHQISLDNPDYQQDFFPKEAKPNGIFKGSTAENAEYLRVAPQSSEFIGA
# [12] = target: HER2 (Homo sapiens, UniProt P04626); assay: In vitro protein kinase inhibition assay (ELISA kit), HER2
# Chain of HER2 (P04626 23-1255): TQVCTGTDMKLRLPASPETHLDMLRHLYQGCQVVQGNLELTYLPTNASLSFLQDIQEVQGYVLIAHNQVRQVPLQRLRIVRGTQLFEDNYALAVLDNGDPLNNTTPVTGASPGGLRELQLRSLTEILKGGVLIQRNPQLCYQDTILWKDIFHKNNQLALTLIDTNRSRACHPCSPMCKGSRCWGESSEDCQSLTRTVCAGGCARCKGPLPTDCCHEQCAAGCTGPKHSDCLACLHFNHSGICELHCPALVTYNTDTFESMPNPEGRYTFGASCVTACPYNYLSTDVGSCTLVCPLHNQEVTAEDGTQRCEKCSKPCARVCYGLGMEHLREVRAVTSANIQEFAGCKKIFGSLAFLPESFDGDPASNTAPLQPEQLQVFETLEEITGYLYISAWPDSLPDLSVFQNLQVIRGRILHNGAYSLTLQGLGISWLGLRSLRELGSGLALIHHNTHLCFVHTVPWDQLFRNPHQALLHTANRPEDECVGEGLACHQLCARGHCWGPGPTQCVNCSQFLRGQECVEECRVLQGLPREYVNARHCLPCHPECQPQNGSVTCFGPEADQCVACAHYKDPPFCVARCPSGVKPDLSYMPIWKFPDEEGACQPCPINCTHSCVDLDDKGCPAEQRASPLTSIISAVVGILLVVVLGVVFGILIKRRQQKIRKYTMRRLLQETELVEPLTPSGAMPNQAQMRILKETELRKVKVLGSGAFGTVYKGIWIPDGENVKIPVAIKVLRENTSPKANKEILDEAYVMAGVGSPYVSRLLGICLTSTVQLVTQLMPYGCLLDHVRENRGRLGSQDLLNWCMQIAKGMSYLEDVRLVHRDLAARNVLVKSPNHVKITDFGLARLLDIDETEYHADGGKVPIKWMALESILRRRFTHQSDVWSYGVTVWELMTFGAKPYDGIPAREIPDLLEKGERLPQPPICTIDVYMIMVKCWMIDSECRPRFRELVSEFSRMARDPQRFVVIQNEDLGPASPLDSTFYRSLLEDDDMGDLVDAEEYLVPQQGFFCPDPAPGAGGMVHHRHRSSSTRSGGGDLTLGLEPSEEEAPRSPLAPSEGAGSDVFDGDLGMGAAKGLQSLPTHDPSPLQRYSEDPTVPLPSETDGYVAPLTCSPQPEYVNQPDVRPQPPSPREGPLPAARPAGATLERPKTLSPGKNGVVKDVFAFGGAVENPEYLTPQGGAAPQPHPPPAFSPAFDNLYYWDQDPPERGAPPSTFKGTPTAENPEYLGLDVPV
# [13] = target: CDK2 (Homo sapiens, UniProt P24941); assay: In vitro protein kinase inhibition assay (ELISA kit), CDK2
# [14] = target: VEGFR-2 (Homo sapiens, UniProt P35968); assay: In vitro protein kinase inhibition assay (ELISA kit), VEGFR-2
# Chain of VEGFR-2 (P35968 20-1356): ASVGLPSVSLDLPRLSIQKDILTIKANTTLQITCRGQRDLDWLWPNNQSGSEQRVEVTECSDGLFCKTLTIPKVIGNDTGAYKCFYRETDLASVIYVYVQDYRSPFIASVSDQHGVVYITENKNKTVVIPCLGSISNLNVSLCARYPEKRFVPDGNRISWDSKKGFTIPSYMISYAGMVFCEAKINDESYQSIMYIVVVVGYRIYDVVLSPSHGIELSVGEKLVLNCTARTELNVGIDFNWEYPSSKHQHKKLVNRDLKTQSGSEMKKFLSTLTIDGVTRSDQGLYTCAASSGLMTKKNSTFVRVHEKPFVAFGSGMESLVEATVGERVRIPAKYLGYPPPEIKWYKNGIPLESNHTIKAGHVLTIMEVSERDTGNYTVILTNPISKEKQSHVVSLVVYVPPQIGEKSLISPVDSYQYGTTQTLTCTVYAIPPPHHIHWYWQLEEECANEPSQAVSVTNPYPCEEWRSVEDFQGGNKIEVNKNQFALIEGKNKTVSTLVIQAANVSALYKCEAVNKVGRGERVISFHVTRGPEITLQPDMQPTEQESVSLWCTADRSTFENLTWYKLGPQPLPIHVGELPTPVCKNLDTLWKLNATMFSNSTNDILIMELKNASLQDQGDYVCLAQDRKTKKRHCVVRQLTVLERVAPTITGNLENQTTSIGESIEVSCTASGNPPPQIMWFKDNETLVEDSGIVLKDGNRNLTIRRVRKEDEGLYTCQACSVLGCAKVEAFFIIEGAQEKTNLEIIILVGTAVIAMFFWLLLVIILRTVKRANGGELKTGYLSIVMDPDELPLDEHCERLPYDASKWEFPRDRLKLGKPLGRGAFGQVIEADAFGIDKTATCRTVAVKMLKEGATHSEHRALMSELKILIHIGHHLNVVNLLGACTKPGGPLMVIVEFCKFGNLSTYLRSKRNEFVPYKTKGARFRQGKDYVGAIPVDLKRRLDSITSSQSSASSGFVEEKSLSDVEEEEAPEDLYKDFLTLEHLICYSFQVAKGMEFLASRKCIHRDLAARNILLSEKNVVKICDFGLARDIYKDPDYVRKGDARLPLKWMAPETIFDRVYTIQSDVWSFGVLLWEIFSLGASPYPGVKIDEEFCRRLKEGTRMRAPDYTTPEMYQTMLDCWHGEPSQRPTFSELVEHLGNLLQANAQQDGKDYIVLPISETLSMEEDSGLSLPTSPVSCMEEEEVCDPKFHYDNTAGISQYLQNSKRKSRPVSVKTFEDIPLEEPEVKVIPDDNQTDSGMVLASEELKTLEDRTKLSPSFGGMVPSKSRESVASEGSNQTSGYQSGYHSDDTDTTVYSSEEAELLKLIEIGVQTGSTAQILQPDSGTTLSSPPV
# [15] = design: method as in PMID 15863696; conditions: cited from earlier work
# [16] = HCT-116, MDA-MB-231, HeLa, MCF-7, range, read-out: IC50 values, range over the cancer cell lines tested
# [17] = cell count relative to the control (17β-E2)
smiles,measurement,setting,value
"COc1cccc(C(=O)/C=C/c2ccc(OCc3ccccc3)c(OC)c2)c1 [Compound 4u, (E)-3-(4-(Benzyloxy)-3-methoxyphenyl)-1-(3-methoxyphenyl)prop-2-en-1-one]",IC50,[1],95.3 ± 4.9 µM
same,IC50,[2],> 100 µM
same,IC50,[3],> 100 µM
same,IC50,[4],82.8 ± 4.1 µM
same,IC50 at 24 h,[5],40 to 40.1 µM
same,IC50,[6],39 ± 2.4 µM
same,IC50,[7]; [16],55.6 to 82.8 µM
"COc1ccc(C(=O)/C=C/c2ccc(OCc3ccccc3)c(OC)c2)cc1 [Compound 4v, (E)-3-(4-(Benzyloxy)-3-methoxyphenyl)-1-(4-methoxyphenyl)prop-2-en-1-one]",IC50,[1],14.5 ± 1.1 µM
same,IC50,[2],10.2 ± 0.8 µM
same,IC50,[3],18.2 ± 1.5 µM
same,IC50,[4],8.67 ± 0.6 µM
same,IC50 at 24 h,[5],75.2 ± 3.9 µM
same,IC50,"[7]; HCT-116 and HeLa, range over the compounds named, read-out: IC50 values, range against HCT-116 and HeLa",6.59 to 22.6 µM
same,IC50,"[7]; MDA-MB-231 and MCF-7, range over the compounds named, read-out: IC50 values, range against MDA-MB-231 and MCF-7",2.08 to 13.6 µM
same,Inhibition (%) Aromatase,"[8]; 0.01 µM, individual Data 1-3",17% and 20%
same,Inhibition (%) Aromatase,"[8]; 0.1 µM, individual Data 1-3",36%
same,Inhibition (%) Aromatase,"[8]; 1 µM, individual Data 1-3",64% and 63%
same,Inhibition (%) Aromatase,"[8]; 10 µM, individual Data 1-3",84% and 87%
same,Inhibition (%) Aromatase,"[8]; 100 µM, individual Data 1-3",94% and 97%
same,IC50,"[8]; mean ± SD of triplicate, approximate values, read-out: Aromatase Inhibition IC50",0.357 ± 0.012 µM
same,inhibition at 0.01 µM,"[8]; read-out: Inhibition (%) Aromatase, 0.01 µM, individual Data 1-3",18%
same,inhibition at 0.1 µM,"[8]; read-out: Inhibition (%) Aromatase, 0.1 µM, individual Data 1-3",34%
same,inhibition at 1 µM,"[8]; read-out: Inhibition (%) Aromatase, 1 µM, individual Data 1-3",66%
same,inhibition at 10 µM,"[8]; read-out: Inhibition (%) Aromatase, 10 µM, individual Data 1-3",85%
same,inhibition at 100 µM,"[8]; read-out: Inhibition (%) Aromatase, 100 µM, individual Data 1-3",95%
same,Cell Proliferation MCF-7 %,[9]; [17],73%
same,Cell Proliferation MCF-7 Cell Count,[9]; mean ± SD of triplicate,"13,611 ± 485"
same,Reduction of growth/cell count (inhibition) in MCF-7,[9]; relative to control,27%
same,Cell Proliferation MCF-7a %,[10]; [17],98%
same,Cell Proliferation MCF-7a Cell Count,[10]; mean ± SD of triplicate,"20,397 ± 589"
same,Inhibition in MCF-7a,[10]; relative to control,2%
same,IC50,[11],0.671 ± 0.022 µM
same,Inhibition (%) EGFR,"[11]; 0.01 µM, individual Data 1-3",3.97% and 2.96% and 6%
same,Inhibition (%) EGFR,"[11]; 0.1 µM, individual Data 1-3",28.6% and 31.2%
same,Inhibition (%) EGFR,"[11]; 1 µM, individual Data 1-3",59.9% and 57.5%
same,Inhibition (%) EGFR,"[11]; 10 µM, individual Data 1-3",82.3% and 86.7%
same,Inhibition (%) EGFR,"[11]; 100 µM, individual Data 1-3",90.54% and 95%
same,inhibition at 0.1 µM,"[11]; read-out: Inhibition (%) EGFR, 0.1 µM, individual Data 1-3",29.6%
same,inhibition at 1 µM,"[11]; read-out: Inhibition (%) EGFR, 1 µM, individual Data 1-3",62.3%
same,inhibition at 10 µM,"[11]; read-out: Inhibition (%) EGFR, 10 µM, individual Data 1-3",84.2%
same,inhibition at 100 µM,"[11]; read-out: Inhibition (%) EGFR, 100 µM, individual Data 1-3",92.4%
same,IC50,[12],1.57 ± 0.061 µM
same,Inhibition (%) Her2,"[12]; 0.01 µM, individual Data 1-3",4.92% and 2.56% and 8.92%
same,Inhibition (%) Her2,"[12]; 0.1 µM, individual Data 1-3",7.65% and 12.67%
same,Inhibition (%) Her2,"[12]; 1 µM, individual Data 1-3",45.3% and 42.34%
same,Inhibition (%) Her2,"[12]; 10 µM, individual Data 1-3",71.2% and 75.89%
same,Inhibition (%) Her2,"[12]; 100 µM, individual Data 1-3",88.65% and 94.3%
same,inhibition at 0.1 µM,"[12]; read-out: Inhibition (%) Her2, 0.1 µM, individual Data 1-3",10.2%
same,inhibition at 1 µM,"[12]; read-out: Inhibition (%) Her2, 1 µM, individual Data 1-3",48.9%
same,inhibition at 10 µM,"[12]; read-out: Inhibition (%) Her2, 10 µM, individual Data 1-3",74.7%
same,inhibition at 100 µM,"[12]; read-out: Inhibition (%) Her2, 100 µM, individual Data 1-3",91.6%
same,IC50,[13],1.03 ± 0.032 µM
same,Inhibition (%) CDK2,"[13]; 0.01 µM, individual Data 1-3",5.2% and 8.6%
same,Inhibition (%) CDK2,"[13]; 0.1 µM, individual Data 1-3",18.3% and 24.97%
same,Inhibition (%) CDK2,"[13]; 1 µM, individual Data 1-3",47.4% and 43.2%
same,Inhibition (%) CDK2,"[13]; 10 µM, individual Data 1-3",76.2% and 84.1%
same,Inhibition (%) CDK2,"[13]; 100 µM, individual Data 1-3",89.1% and 95.3%
same,inhibition at 0.01 µM,"[13]; read-out: Inhibition (%) CDK2, 0.01 µM, individual Data 1-3",6.58%
same,inhibition at 0.1 µM,"[13]; read-out: Inhibition (%) CDK2, 0.1 µM, individual Data 1-3",22.9%
same,inhibition at 1 µM,"[13]; read-out: Inhibition (%) CDK2, 1 µM, individual Data 1-3",51.2%
same,inhibition at 10 µM,"[13]; read-out: Inhibition (%) CDK2, 10 µM, individual Data 1-3",79.3%
same,inhibition at 100 µM,"[13]; read-out: Inhibition (%) CDK2, 100 µM, individual Data 1-3",92.3%
same,IC50,[14],1.82 ± 0.062 µM
same,Inhibition (%) VEGFR2,"[14]; 0.01 µM, individual Data 1-3",5.43% and 9.43%
same,Inhibition (%) VEGFR2,"[14]; 0.1 µM, individual Data 1-3",15% and 21.8%
same,Inhibition (%) VEGFR2,"[14]; 1 µM, individual Data 1-3",36.9% and 34.2%
same,Inhibition (%) VEGFR2,"[14]; 10 µM, individual Data 1-3",67.26% and 74.3%
same,Inhibition (%) VEGFR2,"[14]; 100 µM, individual Data 1-3",86% and 93.4%
same,inhibition at 0.01 µM,"[14]; read-out: Inhibition (%) VEGFR2, 0.01 µM, individual Data 1-3",7.43%
same,inhibition at 0.1 µM,"[14]; read-out: Inhibition (%) VEGFR2, 0.1 µM, individual Data 1-3",18.1%
same,inhibition at 1 µM,"[14]; read-out: Inhibition (%) VEGFR2, 1 µM, individual Data 1-3",39%
same,inhibition at 10 µM,"[14]; read-out: Inhibition (%) VEGFR2, 10 µM, individual Data 1-3",70.2%
same,inhibition at 100 µM,"[14]; read-out: Inhibition (%) VEGFR2, 100 µM, individual Data 1-3",89.2%
O=C(/C=C/c1ccc(O)cc1)c1ccccc1 [4-hydroxychacone],Concentration at which estrogenic activity is shown,[15],0.0001 mol
"COc1cc(/C=C/C(=O)c2ccccc2)ccc1OCc1ccccc1 [Compound 4t, (E)-3-(4-(Benzyloxy)-3-methoxyphenyl)-1-phenylprop-2-en-1-one]",IC50,[1],68.9 ± 3.7 µM
same,IC50,[2],64.1 ± 3.8 µM
same,IC50,[3],59.3 ± 3.4 µM
same,IC50,[4],55.6 ± 2.9 µM
same,IC50 at 24 h,[5],40 to 40.1 µM
same,IC50,[6],40.1 ± 2.5 µM
same,IC50,[7]; [16],55.6 to 82.8 µM
"COc1ccccc1/C=C/C(=O)c1ccccc1 [Compound 4c, (E)-3-(2-Methoxyphenyl)-1-phenylprop-2-en-1-one]",IC50,[1],28.4 ± 1.8 µM
same,IC50,[2],35.9 ± 2.1 µM
same,IC50,[3],42.5 ± 2.5 µM
same,IC50,[4],23.5 ± 1.6 µM
same,IC50 at 24 h,[5],77.3 to 100 µM
same,IC50,[6],> 100 µM
same,IC50,[7]; [16],23.5 to 74.5 µM
"COc1cccc(/C=C/C(=O)c2ccccc2)c1 [Compound 4d, (E)-3-(3-Methoxyphenyl)-1-phenylprop-2-en-1-one]",IC50,[1],36 ± 2.2 µM
same,IC50,[2],43.6 ± 2.3 µM
same,IC50,[3],39.4 ± 2.3 µM
same,IC50,[4],29.7 ± 1.9 µM
same,IC50 at 24 h,[5],77.3 to 100 µM
same,IC50,[6],77.3 ± 3.8 µM
same,IC50,[7]; [16],23.5 to 74.5 µM
